Experimental data taken from US6603023B2 (priority 1996, dated 2003).
Like-named read-outs stand apart in the source and are kept apart here. Marks after values point to notes of the source that are not given here. Starred links: 1 amine or outer side, 2 acyl side, 3 side chain; linkers in the order of their positions; H or OH if unused. Positions of bridges follow the written chain, without caps; N, C: chain ends. Non-standard residues stand in square brackets, D forms with d. Residues, ends and D or L forms follow the SMILES beside them. Chains are numbered I, II in the order given. Actinocin(9to1) = Cc1c2oc3c(C)ccc(C(=O)[*:1])c3nc-2c(C(=O)[*:2])c(N)c1=O; NMeV = CN[C@H](C(=O)O)C(C)C; Sar = CNCC(=O)O

Assays:
[1] = test system: CCRF-CEM human T-cell acute lymphoblastic leukemia cell line; test: XTT cytotoxicity (cell growth inhibition), CCRF-CEM
Summary of the method: (§1)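 Duplicate 72 h cultures at 5×10^4 cells/mL, 37 °C, 5% CO2; then XTT plus PMS for 4 h; dual-wavelength read at 450/630 nm. Resistant sublines held under their selecting agents.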

CCRF-CEM/Taxol® = test: cells; type: cell-based, human; conditions: for IC50: XTT, 72 h, read-out: IC50
Summary of the method: as §1

CCRF-CEM/VBL100 = test: cells; type: cell-based, human; conditions: for (B)/(A) IC50 ratio: CCRF-CEM/VBL100 vs CCRF-CEM
Summary of the method: as §1

CCRF-CEM/VM1 = test: cells; type: cell-based, human; conditions: for (D)/(A) IC50 ratio: CCRF-CEM/VM1 vs CCRF-CEM
Summary of the method: as §1

[2] = test system: DC-3F hamster lung fibroblast cell line; test: SRB cytotoxicity, DC-3F; type: cell-based; conditions: read-out: IC50
Description: (§2) The DC-3F hamster lung fibroblast cell line and its actinomycin D-selected sublines (DC-3F/ADII and DC-3F/ADX) were obtained from the Memorial Sloan-Kettering Cancer Center (MSKCC).
(§3) The drug-resistant cell lines were continuously cultured in the presence of the selecting agent, AD, DX, VBL or VM to maintain the drug resistant phenotypes. […] All cells were cultured in RPMI 1640-10% FBS at 37° C. 5% CO2 (see below).
(§4) The cytotoxicity of the drug toward the monolayer cell cultures (such as DC-3F, MCF-7, SK-N-As and sublines) was determined in 96-well microtiter plates by the SRB method as described by Skehan and co-workers (Skehan, P., et al., J. Natl. Cancer Inst. 1990, 82, 1107-1112) for measuring the cellular protein content. Cultures were fixed with trichloroacetic acid and then stained for 30 min with 0.4% suforhodamine B dissolved in 1% acetic acid. Unbound dye was removed by acetic acid washes, and the protein-bound dye was extracted with an unbuffered Tris base (tris(hydroxy-methyl)aminomethane) for determination of absorbance at 570 nm in a 96-well microtiter plate reader. The experiments were carried out in duplicate. Each run entailed six to seven concentrations of the tested drugs. Data were analyzed with the median-effect plot (Chou, T.-C. & Talalay, P. T. (1984) Adv. Enzyme Regul. 22, 27-55) using a previously described computer program (Chou, J., & Chou T.-C. 1987, Dose-effect analysis with microcomputers: Quantitation of ED50, synergism, antagonism, low-dose risk, reception-ligand binding and enzyme kinetics, IBM-PC software and manual, Biosoft, Cambridge, U.K.).

DC-3F/ADII = test: SRB cytotoxicity, DC-3F/ADII; type: cell-based, hamster; conditions: Table 3; read-out: IC50
Description: as §2, §3, §4
(§5) Concerning Table 3, experiments were carried out using the cell lines DC-3F (parent hamster lung cells), DC-3F/ADII (moderate multidrug-resistant (MDR) cells) and DC-3F/ADX (very strong MDR cells).

DC-3F/ADX = test: cells; type: cell-based, hamster; conditions: for folds of resistance (IC50 ratio vs parent cell line): DC-3F/ADX vs DC-3F; for IC50: read-out: IC50
Description: as §2, §3, §4, §5

murine leukemic P388/0 = test: XTT cytotoxicity, P388/0; type: cell-based; conditions: Table 1C; XTT, 72 h; read-out: IC50
Description: as §2, §3
(§6) The cells were cultured at an initial density of 5×10^4 cells/mL. They were maintained in a 5% CO2-humidified atmosphere at 37° C. in RPMI-1640 medium (GIBCO-BRL, Gaithersburg, Md.) containing penicillin (100 U/mL), streptomycin ([…]) (GIBCO-BRL) and 10% heat inactivate fetal bovine serum. Culture for cell suspension (such as for CCRF-CEM, P388 and sublines), were performed by the XTT-microculture tetrazonium method (Scudiero, D. A. et al., Cancer Res. 1988, 48, 4827-4833) in duplicate in 96-well microtiter plates.
(§7) 2′,3′-Bis(methoxy-4-nitro-5-sufophenyl)-5-[(phenylamino)carbonyl]2H-tetrazolium hyudroxide (XTT) was prepared at 1 mg/mL in prewarmed (37° C.) medium without serum. Phenazine methosulfate (PMS) and fresh XTT were mixed together to obtain 0.025 mM PMS-XTT solution (25 μL of the stock 5 mM PMS was added per 5 mL of 1 mg/mL XTT). Following a 72 h incubation, 50 μL of the assay aliquots were added to each well of the cell culture. After incubation at 37° C. for 4 h, absorbance at 450 nm and 630 nm was measured with a microplate reader (EL340, Bio-Tek Instruments, Inc., Winooski, Vt.).

P388/Adr = test: cells; type: cell-based, murine; conditions: Table 1C; for folds of resistance (IC50 ratio vs parent cell line): P388/Adr vs P388/O; for IC50: XTT, 72 h, read-out: IC50
Description: as §3, §6, §7

[3] = test system: human neuroblastoma SK-N-As; test: SRB cytotoxicity, SK-N-As; type: cell-based; conditions: Table 1C; SRB, 72 h; read-out: IC50
Description: as §2, §3, §4

SK-N-FI = test: cells; type: cell-based, human; conditions: Table 1C; for folds of resistance (IC50 ratio vs parent cell line): SK-N-FI vs SK-N-As; for IC50: SRB, 72 h, read-out: IC50
Description: as §3, §4

MCF-7 = test: SRB cytotoxicity, MCF-7; type: cell-based, human; conditions: Table 1C; SRB, 72 h; read-out: IC50
Description: as §4

MCF-7/Adr = test: cells; type: cell-based, human; conditions: Table 1C; for folds of resistance (IC50 ratio vs parent cell line): MCF-7/Adr vs MCF-7; for IC50: SRB, 72 h, read-out: IC50
Description: Cultures were fixed with trichloroacetic acid and then stained for 30 min with 0.4% suforhodamine B dissolved in 1% acetic acid. Unbound dye was removed by acetic acid washes, and the protein-bound dye was extracted with an unbuffered Tris base (tris(hydroxy-methyl)aminomethane) for determination of absorbance at 570 nm in a 96-well microtiter plate reader. The experiments were carried out in duplicate. Each run entailed six to seven concentrations of the tested drugs.

[4] = ester bond
[5] = Table 1A, XTT, 72 h, read-out: IC50
[6] = Table 6, single determinations, read-out: IC50

SMILES	IC50 ([1]; Table 1A, XTT, 72 h) [nM]	IC50 (CCRF-CEM/Taxol®; Table 1A) [nM]	(B)/(A) IC50 ratio (CCRF-CEM/VBL100; Table 1A)	IC50 (CCRF-CEM/VBL100; [5]) [nM]	(D)/(A) IC50 ratio (CCRF-CEM/VM1; Table 1A)	IC50 (CCRF-CEM/VM1; [5]) [nM]	IC50 ([2]; Table 1C, SRB, 72 h) [nM]	IC50 ([2]; Table 3) [nM]	IC50 (DC-3F/ADII) [nM]	folds of resistance (IC50 ratio vs parent cell line) (DC-3F/ADX; Table 1C)	IC50 (DC-3F/ADX; Table 1C, SRB, 72 h) [nM]	IC50 (DC-3F/ADX; Table 3) [nM]	IC50 (murine leukemic P388/0) [nM]	folds of resistance (IC50 ratio vs parent cell line) (P388/Adr)	IC50 (P388/Adr) [nM]	IC50 [3] [nM]	folds of resistance (IC50 ratio vs parent cell line) (SK-N-FI)	IC50 (SK-N-FI) [nM]	IC50 (MCF-7) [nM]	folds of resistance (IC50 ratio vs parent cell line) (MCF-7/Adr)	also measured
C/C(=C\c1csc(C)n1)[C@@H]1C/C=C\CCC[C@H](C)[C@H](O)[C@@H](C)C(=O)C(C)(C)[C@@H](O)CC(=O)O1 [Desoxyepothilone A, desoxyepothilone A]	22	15	0.55	12	0.59	13	11	10.6	19.8	(3.9x)	42	42	21.3	(0.59x)	12.5	73	(3.1x)	223	32	(4.5x)	IC50 [1]: 22 nM; IC50 ([1]; Table 1, XTT): 22 nM; IC50 ([1]; Table 2): 2 nM; IC50 ([1]; Table 6, single determinations): 22 nM; IC50 ([1]; Table 7, CEM): 22 nM; IC50 ([1]; read-out: IC50 (A), Table 2A, parent cell line): 22 nM; (C)/(A) IC50 ratio (CCRF-CEM/Taxol®; Table 1A, CCRF-CEM/Taxol vs CCRF-CEM): 0.7; IC50 (CCRF-CEM/VBL100; Table 1, XTT, read-out: IC50): 12 nM; IC50 (CCRF-CEM/VBL100; Table 2, CCRF-CEM/VLB, read-out: IC50): 12 nM; (B)/(A) ratio (fold resistance >1, collateral sensitivity <1) (CCRF-CEM/VBL100; Table 2A): (0.55)^b; IC50 (CCRF-CEM/VBL100; Table 2A, MDR cell line, read-out: IC50 (B)): 12 nM; IC50 (CCRF-CEM/VBL100; [6]): 12 nM; IC50 (CCRF-CEM/VBL100; Table 7, CEM/VBL, read-out: IC50): 12 nM; IC50 (CCRF-CEM/VBL100; read-out: IC50): 12 nM; IC50 (CCRF-CEM/VM1; Table 1, XTT, read-out: IC50): 13 nM; IC50 (CCRF-CEM/VM1; Table 2, CCR-CEM/VM-1, read-out: IC50): 13 nM; (C)/(A) ratio (fold resistance >1, collateral sensitivity <1) (CCRF-CEM/VM1; Table 2A): (0.59)^b; IC50 (CCRF-CEM/VM1; Table 2A, Topo II gene mutated cell line, read-out: IC50 (C)): 13 nM; IC50 (CCRF-CEM/VM1; [6]): 13 nM; IC50 (MCF-7/Adr): 144 nM
CC[Si](CC)(CC)O[C@H]1CC(=O)O[C@H](/C(C)=C/c2csc(C)n2)C/C=C(/C)CCC[C@H](C)[C@H](OC(=O)OCC(Cl)(Cl)Cl)[C@@H](C)C(=O)C1(C)C	–	–	–	–	–	–	–	–	–	–	–	–	–	–	–	–	–	–	–	–	ring closure, yield of all isomers ([4]; from CC[Si](CC)(CC)O[C@@H](CC(=O)O)C(C)(C)C(=O)[C@H](C)[C@@H](OC(=O)OCC(Cl)(Cl)Cl)[C@@H](C)CCC/C(C)=C\C[C@H](O)/C(C)=C/c1csc(C)n1, 2,4,6-trichlorobenzoyl chloride / Et3N / DMAP, toluene, 0.79 mM, 25.0 °C, 3.5 h): 78%; ring closure, yield of all isomers ([4]; from CC[Si](CC)(CC)O[C@@H](CC(=O)O)C(C)(C)C(=O)[C@H](C)[C@@H](OC(=O)OCC(Cl)(Cl)Cl)[C@@H](C)CCC/C(C)=C\C[C@H](O)/C(C)=C/c1csc(C)n1, 2,4,6-trichlorobenzoyl chloride/Et3N/DMAP, toluene, 1.32 mM, 25.0 °C, 3.75 h): 78%
C/C(=C\c1csc(C)n1)[C@@H]1C/C=C\CCCC[C@H](O[Si](C)(C)C(C)(C)C)[C@@H](C)C(=O)C(C)(C)[C@@H](O[Si](C)(C)C(C)(C)C)CC(=O)O1	–	–	–	–	–	–	–	–	–	–	–	–	–	–	–	–	–	–	–	–	ring closure, yield of all isomers ([4]; from C/C(=C\c1csc(C)n1)[C@@H](O)C/C=C\CCCC[C@H](O[Si](C)(C)C(C)(C)C)[C@@H](C)C(=O)C(C)(C)[C@H](CC(=O)O)O[Si](C)(C)C(C)(C)C, DCC/DMAP/DMAP.HCl, CHCl3, 0.32 mM, 80.0 °C, 20.0 h): 75%
Cc1c2oc3c(C)ccc(C(=O)N[C@@H]4C(=O)N[C@H](C(C)C)C(=O)N5CCC[C@H]5C(=O)N(C)CC(=O)N(C)[C@@H](C(C)C)C(=O)O[C@@H]4C)c3nc-2c(C(=O)N[C@@H]2C(=O)N[C@H](C(C)C)C(=O)N3CCC[C@H]3C(=O)N(C)CC(=O)N(C)[C@@H](C(C)C)C(=O)O[C@@H]2C)c(N)c1=O [Actinomycin D, actinomycin D] (I: T[dV]P[Sar][NMeV] / II: T[dV]P[Sar][NMeV]; ester I:1-I:C, II:1-II:C; linker I:N-II:N via Actinocin(9to1))	0.35	1.3	109	38	0.8	0.27	0.44	0.058	8.2	(13000x)	572	486	0.15	(8x)	1.2	0.85	(14x)	11.9	0.68	(2.5x)	(C)/(A) IC50 ratio (CCRF-CEM/Taxol®): 3.7; IC50 ([2]; Table 3, value in parentheses): 0.0582 nM; fold resistance vs parent DC-3F (DC-3F/ADX; DC-3F/ADX cells, listed as AD): 13,000 fold; IC50 (MCF-7/Adr): 1.67 nM
